Each block holds one molecule with its values, some of them ahead of it.
What was measured:
[1] = biological target: T1, Type-1 angiotensin II receptor B (Rattus norvegicus, UniProt P29089); assay: In vitro inhibition of specific binding of [125I]AII to Angiotensin II receptor, type 1 from rat liver membrane
T1 sequence (P29089 whole entry): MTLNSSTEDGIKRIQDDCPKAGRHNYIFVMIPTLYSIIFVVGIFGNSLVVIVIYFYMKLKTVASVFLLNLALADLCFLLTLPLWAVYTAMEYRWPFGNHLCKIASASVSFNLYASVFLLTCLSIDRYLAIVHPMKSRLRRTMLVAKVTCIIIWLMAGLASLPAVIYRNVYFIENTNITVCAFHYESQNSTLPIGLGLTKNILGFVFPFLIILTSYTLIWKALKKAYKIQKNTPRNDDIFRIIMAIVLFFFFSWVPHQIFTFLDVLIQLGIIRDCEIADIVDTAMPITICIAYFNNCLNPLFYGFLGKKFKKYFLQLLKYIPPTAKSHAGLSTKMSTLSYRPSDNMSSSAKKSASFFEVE

Rattus norvegicus [2] = assay: Tested for induced pressor response to AII (40 ng/kg, iv) in conscious normotensive rats at a compound dose of 3 mg/kg po for 30 min; assay type: functional
Monkey [3] = assay: Tested for induced pressor response to AII (100 ng/kg, iv) in conscious normotensive monkey at a compound dose of 3 mg/kg po for 1 hr; assay type: functional, Cercopithecidae
Rattus norvegicus [4] = assay: Tested for induced pressor response to AII (40 ng/kg, iv) in conscious normotensive rats at a compound dose of 3 mg/kg po for 180 min; assay type: functional
Rattus norvegicus [5] = assay: Tested for induced pressor response to AII (40 ng/kg, iv) in conscious normotensive rats at a compound dose of 3 mg/kg po for 15 min; assay type: functional
Rattus norvegicus [6] = assay: Tested for induced pressor response to AII (40 ng/kg, iv) in conscious normotensive rats at a compound dose of 3 mg/kg po for 120 min; assay type: functional
Monkey [7] = assay: Tested for induced pressor response to AII (100 ng/kg, iv) in conscious normotensive monkey at a compound dose of 3 mg/kg po for 0 hr; assay type: functional, Cercopithecidae
Monkey [8] = assay: Tested for induced pressor response to AII (100 ng/kg, iv) in conscious normotensive monkey at a compound dose of 3 mg/kg po for 4 hr; assay type: functional, Cercopithecidae
Monkey [9] = assay: Tested for induced pressor response to AII (100 ng/kg, iv) in conscious normotensive monkey at a compound dose of 3 mg/kg po for 3 hr; assay type: functional, Cercopithecidae
Monkey [10] = assay: Tested for induced pressor response to AII (100 ng/kg, iv) in conscious normotensive monkey at a compound dose of 3 mg/kg po for 2 hr; assay type: functional, Cercopithecidae
Rattus norvegicus [11] = assay: Tested for induced pressor response to AII (40 ng/kg, iv) in conscious normotensive rats at a compound dose of 3 mg/kg po for 60 min; assay type: functional
Rattus norvegicus [12] = assay: Tested for induced pressor response to AII (40 ng/kg, iv) in conscious normotensive rats at a compound dose of 3 mg/kg po for 0 min; assay type: functional
Rattus norvegicus [13] = assay: Tested for induced pressor response to AII (40 ng/kg, iv) in conscious normotensive rats at a compound dose of 3 mg/kg po for 90 min; assay type: functional
Monkey [14] = assay: Tested for induced pressor response to AII (100 ng/kg, iv) in conscious normotensive monkey at a compound dose of 3 mg/kg po for 5 hr; assay type: functional, Cercopithecidae

SMILES: CCCCC1=NC2(CCCC2)C(C)(C)C(=O)N1Cc1ccc(-c2ccccc2-c2nnn[nH]2)cc1
- IC50 [1]: 2.2 nM

SMILES: CCCCC1=NC2(CCCC2)CC(=O)N1Cc1ccc(-c2ccccc2-c2nn[nH]n2)cc1
- Delta MAP (Rattus norvegicus [2]): ~15 mmHg
- Delta MAP (Monkey [3]): ~27 mmHg
- Delta MAP (Rattus norvegicus [4]): ~17 mmHg
- Delta MAP (Rattus norvegicus [5]): ~10 mmHg
- Delta MAP (Rattus norvegicus [6]): ~15 mmHg
- Delta MAP (Monkey [7]): ~33 mmHg
- IC50 [1]: 1 nM
- Delta MAP (Monkey [8]): ~32 mmHg
- Delta MAP (Monkey [9]): ~29 mmHg
- Delta MAP (Monkey [10]): ~29 mmHg
- Delta MAP (Rattus norvegicus [11]): ~14 mmHg
- Delta MAP (Rattus norvegicus [12]): ~35 mmHg
- Delta MAP (Rattus norvegicus [13]): ~18 mmHg

SMILES: CCCCC1=NC2(CCCC2)C(=O)N1Cc1ccc(-c2ccccc2-c2nnn[nH]2)cc1 [IRBESARTAN]
- Delta MAP (Rattus norvegicus [2]): ~22 mmHg
- Delta MAP (Monkey [3]): ~9 mmHg
- Delta MAP (Monkey [14]): ~25 mmHg
- Delta MAP (Rattus norvegicus [4]): ~17 mmHg
- Delta MAP (Rattus norvegicus [5]): ~22 mmHg
- Delta MAP (Rattus norvegicus [6]): ~18 mmHg
- Delta MAP (Monkey [7]): ~33 mmHg
- Delta MAP (Monkey [8]): ~23 mmHg
- Delta MAP (Monkey [9]): ~18 mmHg
- Delta MAP (Monkey [10]): ~15 mmHg
- Delta MAP (Rattus norvegicus [11]): ~20 mmHg
- Delta MAP (Rattus norvegicus [12]): ~45 mmHg
- Delta MAP (Rattus norvegicus [13]): ~17 mmHg

More lines, in order of falling IC50 [1], values ahead:

- IC50 [1]: 1300 nM
SMILES: CCCCC1=NC(=O)C2(CCCC2)CN1Cc1ccc(-c2ccccc2C(=O)O)cc1

- IC50 [1]: 71 nM
SMILES: CCCCC1=NCC2(CCCC2)C(=O)N1Cc1ccc(-c2ccccc2C(=O)O)cc1

- IC50 [1]: 53 nM
SMILES: CCCCC1=NC2(CCCC2)CC(=O)N1Cc1ccc(-c2ccccc2C(=O)O)cc1

Reference: ChEMBL document CHEMBL1127866, “Cyclopentanespiro-3H-dihydro-pyrimidinones as Angiotensin II AT1 receptor antagonists” (Bioorg Med Chem Lett, 1994)
